Read-outs that look alike come from different tables or passages of the source.
Key:
[1] = system: Leptosphaeria nodorum—LEPTNO; experiment: Glume Blotch of Wheat, in vivo whole plant, 24 Hour Protectant; settings: for pest or weed control at 100 ppm: Leptosphaeria, read-out: LEPTNO in vivo 1 Day Protectant
[2] = system: Mycosphaerella graminicola (Septoria tritici—SEPTTR); experiment: In vitro fungal growth inhibition, Mycosphaerella graminicola (SEPTTR); assay type: cell-based; settings: Zymoseptoria tritici, read-out: SEPTTR in vitro Growth Inhibition
[3] = system: Puccinia recondita—PUCCRT; experiment: Brown Rust of Wheat, in vivo whole plant, 24 Hour Protectant; settings: for pest or weed control at 100 ppm: Puccinia, read-out: PUCCRT in vivo 1 Day Protectant
Ustilago maydis (USTIMA) = experiment: microbe, parasite or virus in culture; assay type: cell-based; settings: Mycosarcoma maydis, read-out: USTIMA in vitro Growth Inhibition
Septoria tritici—SEPTTR = experiment: Leaf Blotch of Wheat, in vivo whole plant, 24 Hour Protectant; settings: for pest or weed control at 100 ppm: Zymoseptoria tritici, 24 h, read-out: SEPTTR in vivo 1 Day Protectant
[4] = system: Rhizoctonia solani (RHIZSO); experiment: microbe, parasite or virus in culture; assay type: cell-based; settings: Rhizoctonia solani, read-out: RHIZSO in vitro Growth Inhibition
[5] = system: Magnaporthe grisea (Pyricularia oryzae—PYRIOR); experiment: microbe, parasite or virus in culture; assay type: cell-based; settings: Pyricularia oryzae, read-out: PYRIOR in vitro Growth Inhibition
[6] = system: Stagonospora nodorum (Leptosphaeria nodorum—LEPTNO); experiment: In vitro fungal growth inhibition, Stagonospora nodorum (LEPTNO); assay type: cell-based; settings: Leptosphaeria, read-out: LEPTNO in vitro Growth Inhibition
Erysiphe graminis—ERYSGT = experiment: Powdery Mildew of Wheat, in vivo whole plant, 24 Hour Protectant; settings: for pest or weed control at 100 ppm: Erysiphe, read-out: ERYSGT in vivo 1 Day Protectant
[7] = system: Phytophthora infestans (PHYTIN); experiment: microbe, parasite or virus in culture; assay type: cell-based; settings: Phytophthora infestans, read-out: PHYTIN in vitro Growth Inhibition
[8] = system: Phytophthora infestans—PHYTIN; experiment: whole plant or invertebrate; assay type: in vivo; settings: Phytophthora, in Solanum lycopersicum, 24 h, read-out: PHYTIN in vivo 1 Day Protectant
[9] = 100 ppm spray, 24 hour protectant, wheat, control of fungal infection vs untreated plants
[10] = 100 ppm spray, wheat, 24 hour protectant, control of fungal infection vs untreated plants
[11] = wheat plants sprayed at 100 ppm, inoculated after 24 hours, control of fungal infection vs untreated plants
[12] = 100 ppm spray, wheat, 24 hour protectant, % control of fungal infection vs untreated plants

Structure (SMILES)	pest or weed control at 100 ppm [1, 9] [%]	inhibition at 25 ppm ([2]; 25 ppm in growth medium) [%]	pest or weed control at 100 ppm [3, 9] [%]	inhibition at 25 ppm (Ustilago maydis (USTIMA)) [%]	pest or weed control at 100 ppm (Septoria tritici—SEPTTR; [9]) [%]	inhibition at 25 ppm [4] [%]	inhibition at 25 ppm [5] [%]	inhibition at 25 ppm ([6]; 25 ppm in growth medium) [%]	pest or weed control at 100 ppm (Erysiphe graminis—ERYSGT; [9]) [%]	inhibition at 25 ppm [7] [%]	pest or weed control at 100 ppm [8] [%]	other results
COc1ccnc(C(=O)NC2C3CSC2CN(Cc2ccccc2)C3)c1O (stereo not shown) [Compound 325]	25 to 74	< 80	< 25	< 80	< 25	< 80	< 80	< 80	< 25	< 80	< 25	–
CO/N=C(/c1ccc(NC(=O)c2nccc(OC)c2O)cc1)c1cccc(C(F)(F)F)c1 [Compound 408]	–	< 80	–	< 80	–	< 80	< 80	> 80	–	< 80	< 25	pest or weed control at 100 ppm [1, 10]: 25 to 74%; pest or weed control at 100 ppm [3, 10]: < 25%; pest or weed control at 100 ppm (Septoria tritici—SEPTTR; [10]): 25 to 74%; pest or weed control at 100 ppm (Erysiphe graminis—ERYSGT; [10]): 25 to 74%
O=C(NCCc1ccc(Cl)cc1)c1ncccc1O [Compound 233, N-(2-(4-CHLOROPHENYL)ETHYL)-3-HYDROXYPYRIDINE-2-CARBOXAMIDE]	< 25	> 80	< 25	> 80	25 to 74	< 80	> 80	> 80	< 25	> 80	< 25	–
COc1ccnc(C(=O)Nc2cc(C)c(OC(=O)c3ccccc3)c(C)c2)c1O [Compound 456]	–	> 80	–	< 80	–	< 80	< 80	> 80	–	< 80	< 25	pest or weed control at 100 ppm [1, 10]: < 25%; pest or weed control at 100 ppm [3, 10]: < 25%; pest or weed control at 100 ppm (Septoria tritici—SEPTTR; [10]): 25 to 74%; pest or weed control at 100 ppm (Erysiphe graminis—ERYSGT; [10]): < 25%
CSc1nnc(C(=O)N[C@H]2COC(=O)[C@H](Cc3ccccc3)[C@@H](OC(=O)C(C)C)[C@H](C)OC2=O)c(O)n1 [Compound 547]	–	–	–	< 80	–	< 80	< 80	–	–	> 80	25 to 74	pest or weed control at 100 ppm [1, 11]: < 25%; inhibition at 25 ppm ([2]; 25 ppm in the growth medium): < 80%; pest or weed control at 100 ppm [3, 11]: 25 to 74%; pest or weed control at 100 ppm (Septoria tritici—SEPTTR; [11]): 25 to 74%; inhibition at 25 ppm ([6]; 25 ppm in the growth medium): < 80%; pest or weed control at 100 ppm (Erysiphe graminis—ERYSGT; [11]): < 25%
COc1ccnc(C(=O)N[C@H]2COC(=O)[C@H](Cc3ccccc3)[C@@H](OC(=O)C3CCCC3)[C@H](C)OC2=O)c1O [Compound 391]	–	> 80	–	> 80	–	< 80	> 80	> 80	–	< 80	< 25	LEPTNO in vivo 1 Day Protectant [1, 10]: + +; pest or weed control at 100 ppm [3, 10]: 25 to 74%; pest or weed control at 100 ppm (Septoria tritici—SEPTTR; [10]): 25 to 74%; pest or weed control at 100 ppm (Erysiphe graminis—ERYSGT; [10]): < 25%
COc1ccnc(C(=O)NC2CCCC2O)c1O (stereo not shown) [Compound 248]	25 to 74	< 80	< 25	< 80	< 25	< 80	< 80	< 80	< 25	< 80	< 25	–
COc1ccnc(C(=O)N[C@@H]2CC3CC2[C@H]2COC[C@@H]32)c1O (stereo partly shown) [Compound 302]	25 to 74	< 80	< 25	< 80	25 to 74	< 80	< 80	< 80	< 25	< 80	< 25	–
COc1ccnc(C(=O)N[C@H]2COC(=O)[C@H](Cc3ccccc3)[C@@H](OC(=O)C(C)C)[C@H](C)OC2=O)c1OC(=O)O[C@@H]1C[C@H](C)CC[C@H]1C(C)C [Compound 690]	–	< 80	–	< 80	–	< 80	< 80	< 80	–	< 80	< 25	pest or weed control at 100 ppm [1, 12]: 25 to 74%; pest or weed control at 100 ppm [3, 12]: 25 to 74%; SEPTTR in vivo 1 Day Protectant (Septoria tritici—SEPTTR; [12]): + +; pest or weed control at 100 ppm (Erysiphe graminis—ERYSGT; [12]): < 25%
CCCCC1(C)CCCC(NC(=O)c2nccc(OC)c2O)C1 (stereo not shown) [Compound 254]	25 to 74	> 80	25 to 74	< 80	25 to 74	< 80	> 80	> 80	< 25	> 80	< 25	–
COc1ccnc(C(=O)NC2CC3CCC2C3)c1O (stereo not shown) [Compound 287]	25 to 74	< 80	25 to 74	< 80	25 to 74	> 80	< 80	< 80	< 25	< 80	< 25	–
CC(=O)Oc1cccnc1C(=O)N[C@H]1COC(=O)[C@H](Cc2ccccc2)[C@@H](OC(=O)C(C)C)[C@H](C)OC1=O [Compound 568]	–	–	–	< 80	–	< 80	< 80	–	–	< 80	< 25	LEPTNO in vivo 1 Day Protectant [1, 11]: + +; inhibition at 25 ppm ([2]; 25 ppm in the growth medium): > 80%; PUCCRT in vivo 1 Day Protectant [3, 11]: + +; SEPTTR in vivo 1 Day Protectant (Septoria tritici—SEPTTR; [11]): + +; inhibition at 25 ppm ([6]; 25 ppm in the growth medium): > 80%; pest or weed control at 100 ppm (Erysiphe graminis—ERYSGT; [11]): < 25%
COCC(=O)Oc1c(OC)ccnc1C(=O)N[C@H]1COC(=O)[C@H](Cc2ccccc2)[C@@H](OC(=O)C(C)C)[C@H](C)OC1=O [Compound 653]	–	> 80	–	< 80	–	< 80	< 80	> 80	–	< 80	< 25	LEPTNO in vivo 1 Day Protectant [1, 12]: + +; PUCCRT in vivo 1 Day Protectant [3, 12]: + +; SEPTTR in vivo 1 Day Protectant (Septoria tritici—SEPTTR; [12]): + +; ERYSGT in vivo 1 Day Protectant (Erysiphe graminis—ERYSGT; [12]): + +
COc1ccnc(C(=O)N[C@H]2CC(C)(C)[C@H](O)C(C)(C)C2)c1O [Compound 264, trans-4-HYDROXY-3,3,5,5-TETRAMETHYLPICOLINAMIDE]	< 25	< 80	25 to 74	< 80	25 to 74	< 80	< 80	< 80	< 25	< 80	< 25	–
